{"source": "paper PMC11237012", "about": "“Synthesis and preliminary evaluation of novel PET probes for GSK-3 imaging” (Scientific Reports, 2024)", "test": "In vivo PET imaging, uptake in brain and liver", "parameters": "species or system wild-type FVB/NJ mice", "protocol": "To evaluate the imaging potential and brain uptake of PET probe [^18F]2, we selected FVB/NJ wild-type mice and performed radiotracer uptake studies via tail vein injection of [^18F]2 followed by dynamic imaging upto 60 min and static imaging at 120 min post-injection. Ex-vivo biodistribution was performed immediately after 120 min static imaging. Uptake of [^18F]2 was assessed in the brain and liver of wild-type FVB/NJ mice by PET imaging at different time points post-injection with and without co-administration of 2 (reference compound as a self-blocking agent). Representative transverse sectional PET images of the brain at different time points are shown in Fig. 6 and representative coronal and sagittal sectional PET images of the liver and whole-body PET images are shown in SI-Figs. S17 and S18, respectively. It was encouraging to observe brain uptake of PET probe [^18F]2 with a standard uptake value (SUV) of 0.92 ± 0.28 (n = 6) at 5 min post-injection. Approximately 80% of PET probe [^18F]2 was cleared from the wild-type mice brain in the first 30 min. The uptake of [^18F]2 in the brain was lower than in the liver at all time points post-injection. […] The contrasting response in uptake of [^18F]2 in the brain in the presence of 2 could be attributed to the peripheral effect. […] This is also evident from the higher concentration of 2 in the blood of the animals in which [^18F]2 was co-administered with 2 as compared to administration of only [^18F]2 (Figs. 6, 7 and 8 and SI-Table S2, SI-Figs. S17, S18). A similar observation was also reported by Lindberg et al. 2021 with [^11C]verubulin in rats, where co-injection of verubulin increased the uptake of [^11C]verubulin in the brain and was attributed to the saturation of the enzymes (e.g. cytochrome P450 enzymes) that metabolize the tracer in the liver, leading to increased bioavailability. It is also plausible that the isonicotinamide class of compounds are substrate for cytochrome P450 enzymes.\nUptake of PET probe [^18F]2 (1.40 ± 0.61 MBq) was assessed with and without co-administration of 2 in 10–13-week-old wild-type FVB/NJ mice (The Jackson Laboratory, Bar Harbor, ME) after tail vein injection followed by PET imaging at 5 min, 10 min, 15 min, 20 min, 25 min, 30 min, 40 min, 50 min, 60 min and 120 min post injection. Additionally, ex vivo biodistribution was performed at 5 min, 10 min and 120 min post tail vein injection. To prepare [^18F]2 formulation for injection, 0.76 ± 0.48 µg (2.01 ± 1.27 nmol) of [^18F]2 was formulated in 10% ethanol/ 90% isotonic saline. For the blocking experiment, 20.21 ± 1.63 µg (53.75 ± 4.33 nmol) of 2 in DMSO was added to [^18F]2 (Am of 87.27 ± 77.26 (n = 13) GBq/µmole, having 0.46 ± 0.31 µg or 1.23 ± 0.83 nmol of nonradioactive 2 in it) in the final formulation volume of ~ 100 µL. This study had 12 wild type FVB/NJ male mice with body weight 31.8 ± 2.7 g and 10 wild type FVB/NJ female mice with body weight 27.0 ± 3.6 g at the time of imaging. All the animals were anesthetized for tail vein injection and PET imaging using an induction dose of 3% isoflurane and a maintenance dose of 2–3% isoflurane, which was administered via isoflurane vaporizer. All anesthetized animals were kept warm during imaging using a heat supported imaging chamber. For ex vivo biodistribution studies, animals were sacrificed at 5 min, 10 min and 120 min post-injection by cervical dislocation and tissues were harvested for gamma counting. For PET imaging studies, each animal underwent a 60 min dynamic PET scan (Framing Sequence: 1 × 10 s, 4 × 15 s, 8 × 30 s, 5 × 60 s, 4 × 300 s, 3 × 600 s) immediately post injection followed by 10 min static PET scan at 120 min post-injection on small animal micro-PET/X-ray system, Genesys 4 (Sofie BioSystems, Dulles, VA, USA). The PET images were reconstructed using Genesys 4 imaging software installed on the imaging system. […]", "data": [{"smiles": "O=C(Nc1cnccc1-c1ccc([18F])cc1)c1ccnc(NC(=O)C2CC2)c1", "note": "[[^18F]2]", "values": [{"measurement": "Uptake (SUV) by PET image analysis", "setting": "brain, 5 min post-injection, [^18F]2 + 20 µg of 2", "value": "0.93 ± 0.06"}, {"measurement": "Uptake (SUV) by PET image analysis", "setting": "brain, 5 min post-injection, [^18F]2 alone", "value": "0.92 ± 0.28"}, {"measurement": "Change of brain uptake on co-administration of compound 2", "setting": "brain, 5 min time point", "value": "no difference in uptake"}, {"measurement": "Uptake (SUV) by PET image analysis", "setting": "brain, 10 min post-injection, [^18F]2 + 20 µg of 2", "value": "0.57 ± 1.06"}, {"measurement": "Uptake (SUV) by PET image analysis", "setting": "brain, 10 min post-injection, [^18F]2 alone", "value": "0.38 ± 0.06"}, {"measurement": "Change of brain uptake on co-administration of compound 2", "setting": "brain, 10 min time point", "value": 1.5, "unit": "fold"}, {"measurement": "Change of brain uptake on co-administration of compound 2", "setting": "brain, 15 min, 20 min, 25 min and 30 min time points", "value": "twofold"}, {"measurement": "Uptake (SUV) by PET image analysis", "setting": "brain, 15 min post-injection, [^18F]2 + 20 µg of 2", "value": "0.50 ± 0.06"}, {"measurement": "Uptake (SUV) by PET image analysis", "setting": "brain, 15 min post-injection, [^18F]2 alone", "value": "0.24 ± 0.03"}, {"measurement": "Uptake (SUV) by PET image analysis", "setting": "brain, 20 min post-injection, [^18F]2 + 20 µg of 2", "value": "0.43 ± 0.06"}, {"measurement": "Uptake (SUV) by PET image analysis", "setting": "brain, 20 min post-injection, [^18F]2 alone", "value": "0.21 ± 0.02"}, {"measurement": "Uptake (SUV) by PET image analysis", "setting": "brain, 25 min post-injection, [^18F]2 + 20 µg of 2", "value": "0.40 ± 0.06"}, {"measurement": "Uptake (SUV) by PET image analysis", "setting": "brain, 25 min post-injection, [^18F]2 alone", "value": "0.19 ± 0.03"}, {"measurement": "Uptake (SUV) by PET image analysis", "setting": "brain, 30 min post-injection, [^18F]2 + 20 µg of 2", "value": "0.36 ± 0.06"}, {"measurement": "Uptake (SUV) by PET image analysis", "setting": "brain, 30 min post-injection, [^18F]2 alone", "value": "0.19 ± 0.04"}, {"measurement": "Uptake (SUV) by PET image analysis", "setting": "brain, 40 min post-injection, [^18F]2 + 20 µg of 2", "value": "0.31 ± 0.06"}, {"measurement": "Uptake (SUV) by PET image analysis", "setting": "brain, 40 min post-injection, [^18F]2 alone", "value": "0.18 ± 0.04"}, {"measurement": "Uptake (SUV) by PET image analysis", "setting": "brain, 50 min post-injection, [^18F]2 + 20 µg of 2", "value": "0.28 ± 0.06"}, {"measurement": "Uptake (SUV) by PET image analysis", "setting": "brain, 50 min post-injection, [^18F]2 alone", "value": "0.17 ± 0.03"}, {"measurement": "Uptake (SUV) by PET image analysis", "setting": "brain, 60 min post-injection, [^18F]2 + 20 µg of 2", "value": "0.26 ± 0.06"}, {"measurement": "Uptake (SUV) by PET image analysis", "setting": "brain, 60 min post-injection, [^18F]2 alone", "value": "0.16 ± 0.03"}, {"measurement": "Uptake (SUV) by PET image analysis", "setting": "brain, 120 min post-injection, [^18F]2 + 20 µg of 2", "value": "0.18 ± 0.01"}, {"measurement": "Uptake (SUV) by PET image analysis", "setting": "brain, 120 min post-injection, [^18F]2 alone", "value": "0.09 ± 0.01"}, {"measurement": "Uptake (SUV) by PET image analysis", "setting": "liver, 5 min post-injection, [^18F]2 + 20 µg of 2", "value": "5.24 ± 1.46"}, {"measurement": "Uptake (SUV) by PET image analysis", "setting": "liver, 5 min post-injection, [^18F]2 alone", "value": "5.66 ± 1.18"}, {"measurement": "Uptake (SUV) by PET image analysis", "setting": "liver, 10 min post-injection, [^18F]2 + 20 µg of 2", "value": "5.86 ± 0.51"}, {"measurement": "Uptake (SUV) by PET image analysis", "setting": "liver, 10 min post-injection, [^18F]2 alone", "value": "7.43 ± 0.66"}, {"measurement": "Uptake (SUV) by PET image analysis", "setting": "liver, 15 min post-injection, [^18F]2 + 20 µg of 2", "value": "5.49 ± 0.28"}, {"measurement": "Uptake (SUV) by PET image analysis", "setting": "liver, 15 min post-injection, [^18F]2 alone", "value": "7.89 ± 0.59"}, {"measurement": "Uptake (SUV) by PET image analysis", "setting": "liver, 20 min post-injection, [^18F]2 + 20 µg of 2", "value": "5.19 ± 0.27"}, {"measurement": "Uptake (SUV) by PET image analysis", "setting": "liver, 20 min post-injection, [^18F]2 alone", "value": "7.88 ± 0.60"}, {"measurement": "Uptake (SUV) by PET image analysis", "setting": "liver, 25 min post-injection, [^18F]2 + 20 µg of 2", "value": "4.93 ± 0.30"}, {"measurement": "Uptake (SUV) by PET image analysis", "setting": "liver, 25 min post-injection, [^18F]2 alone", "value": "7.61 ± 0.65"}, {"measurement": "Uptake (SUV) by PET image analysis", "setting": "liver, 30 min post-injection, [^18F]2 + 20 µg of 2", "value": "4.76 ± 0.33"}, {"measurement": "Uptake (SUV) by PET image analysis", "setting": "liver, 30 min post-injection, [^18F]2 alone", "value": "7.34 ± 0.77"}, {"measurement": "Uptake (SUV) by PET image analysis", "setting": "liver, 40 min post-injection, [^18F]2 + 20 µg of 2", "value": "4.55 ± 0.23"}, {"measurement": "Uptake (SUV) by PET image analysis", "setting": "liver, 40 min post-injection, [^18F]2 alone", "value": "6.91 ± 0.91"}, {"measurement": "Uptake (SUV) by PET image analysis", "setting": "liver, 50 min post-injection, [^18F]2 + 20 µg of 2", "value": "4.31 ± 1.15"}, {"measurement": "Uptake (SUV) by PET image analysis", "setting": "liver, 50 min post-injection, [^18F]2 alone", "value": "6.40 ± 1.04"}, {"measurement": "Uptake (SUV) by PET image analysis", "setting": "liver, 60 min post-injection, [^18F]2 + 20 µg of 2", "value": "4.09 ± 1.16"}, {"measurement": "Uptake (SUV) by PET image analysis", "setting": "liver, 60 min post-injection, [^18F]2 alone", "value": "5.95 ± 1.12"}, {"measurement": "Uptake (SUV) by PET image analysis", "setting": "liver, 120 min post-injection, [^18F]2 + 20 µg of 2", "value": "3.19 ± 0.37"}, {"measurement": "Uptake (SUV) by PET image analysis", "setting": "liver, 120 min post-injection, [^18F]2 alone", "value": "2.78 ± 1.40"}, {"measurement": "Fraction of probe cleared from the brain", "setting": "wild-type mice brain, in the first 30 min", "value": "Approximately 80%"}]}]}
